Measurements taken from US11096926B2, “(3AR)-1,3A,8-trimethyl-1,2,3,3A,8,8A-hexahydropyrrolo[2,3-b]indol-5-yl phenylcarbamate and methods of treating or preventing neurodegeneration” (priority 2011, dated 2021).
pIC50: −log10 of the molar value. Read-outs that look alike come from different tables or passages of the source.

Key:
[1] = system: APP; experiment: 35S incorporation into newly synthesized APP in SH-SY-5Y cells; format: cell-based; conditions: SH-SY-5Y human neuroblastoma cells; 10 min 35S incorporation; APP mRNA and total protein synthesis not altered
Procedure: FIG. 5A: 10 min ^35S incorporation into APP, in SH-SY-5Y human neuroblastoma cells. FIG. 5B: newly synthesized total protein. FIG. 5C: newly synthesized APP. FIG. 5D: APP mRNA.

[2] = system: APP; format: in vivo, mouse; conditions: trisomy Down Syndrome (Ts65Dn) mice; to control non-DS brain levels
[3] = biological target: T1, AChE (Mus musculus, UniProt P21836); experiment: Brain AChE levels in Ts65Dn mice; format: in vivo; conditions: 50 mg/kg
T1 construct: from tissue; host or cells: brain of Ts65Dn mice
T1 sequence (P21836 32-614): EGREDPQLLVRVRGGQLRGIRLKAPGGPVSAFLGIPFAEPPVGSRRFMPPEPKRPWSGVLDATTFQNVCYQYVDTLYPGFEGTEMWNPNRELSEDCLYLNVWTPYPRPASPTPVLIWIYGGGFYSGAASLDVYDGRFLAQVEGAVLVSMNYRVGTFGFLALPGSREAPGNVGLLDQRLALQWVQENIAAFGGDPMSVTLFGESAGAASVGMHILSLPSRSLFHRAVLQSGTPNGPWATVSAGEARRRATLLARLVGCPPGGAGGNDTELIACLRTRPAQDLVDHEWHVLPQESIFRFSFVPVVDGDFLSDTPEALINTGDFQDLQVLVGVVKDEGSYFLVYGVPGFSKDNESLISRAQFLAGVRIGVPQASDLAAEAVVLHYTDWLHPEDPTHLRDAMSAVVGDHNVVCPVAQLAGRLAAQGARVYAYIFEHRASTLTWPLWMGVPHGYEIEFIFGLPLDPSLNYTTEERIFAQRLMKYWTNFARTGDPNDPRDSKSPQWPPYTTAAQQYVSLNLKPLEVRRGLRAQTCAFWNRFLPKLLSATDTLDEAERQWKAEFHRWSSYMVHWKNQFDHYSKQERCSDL
From the text: (§1) FIG. 17 is a series of graphs illustrating effects of Compound (1) in Ts65Dn mouse model of Down Syndrome.

[4] = system: NGF; experiment: Brain NGF levels in Ts65Dn mice; format: in vivo, mouse
From the text: as §1

[5] = system: APP; format: in vivo, mouse; conditions: APP23 transgenic AD mice; 25 mg daily for 14 days; mRNA levels not lowered
Procedure: APP23 transgenic AD mice were treated with 25 mg of Compound (1) daily for 14 days.

[6] = system: APP, Aβ40 and Aβ42; experiment: APP, Aβ40 and Aβ42 levels in mouse brain (Western Blot, ELISA); format: in vivo; conditions: once daily x 21 day
Procedure: FIG. 15 is a series of graphs illustrating the in vivo reduction of APP, Aβ40 and Aβ42 levels in mouse brain by Compound (1). Drug was administered once daily×21 day: APP—Western Blot, Aβ—Specific ELISA for 1-40 and 1-42 forms.

[7] = Human pharmacokinetics in plasma and CSF (proof of mechanism study, MCI patients); format: in vivo; conditions: for half-life: human, po
Procedure: (§2) For a proof of mechanism study of Compound (1), patients suffering from mild cognitive impairment (MCI) were treated with Compound (1) for 10 days. The patients were dosed with 4×60 mg Compound (1) for 10 days orally, using Posiphen® powder filled into gelatin capsules. Cerebrospinal fluid (CSF) and plasma were drawn from the subjects over a 12 hour period on day 0 and day 11.
Pharmacokinetic analysis was performed for Compound W) and selected metabolites: N^1-norposiphen, N^8-norposiphen, and N^1,N^8-norposiphen. Pharmacodynamic analysis was performed for APP protein and other AD associated biomarkers in CSF and plasma: APP, Aβ1-40, Aβ1-42, N-APP, AChEI, BChEI, Tau/p-Tau, NGF, BDNF, and inflammatory factors.
(d) in humans, plasma and CSF were analyzed 0 to 12 hours, after administration of the drug.
The levels of Compound (1) and selected metabolites in human plasma (FIG. 22A) and human CSF (FIG. 22B) were determined. […] This was corroborated by measuring half-life of Posiphen® in brains of mice.

[8] = Binding to brain proteins, rat brain homogenate; format: in vitro ADME
Procedure: (§3) The binding of Compound (t) and metabolites to brain proteins was determined to be ˜96% (rat and human brain homogenate).

[9] = Binding to brain proteins, human brain homogenate; format: in vitro ADME
Procedure: as §3

[10] = system: Tau; experiment: Tau levels before and after 10 days treatment in MCI patients; format: in vivo, human; conditions: given for 10 days
Procedure: FIG. 24 is a graph illustrating the comparison of Tau before and after treatment with Compound (1) in healthy volunteers.
as §2

[11] = system: alpha-Syn; conditions: dopaminergic SH-SY5Y cells; quantitative Western blotting, standardized for β-actin; read-out: efficacy on alpha-Syn expression (IC50); cited from earlier work
[12] = Plasma pharmacokinetics of phenserine in men and women; conditions: 15 mg dose on day 35 of study
From the text: PT: phenserine; N^8: N^8-desamine phenserine; N^1: N^1-desmethyl phenserine; N^1,N^8: N^1,N^8-desmethyl phenserine.

In the case of `CN1CC[C@]2(C)c3cc(OC(=O)Nc4ccccc4)ccc3N(C)C12` (stereo partly drawn) [Compound (1), (3aR)-1,3a,8-trimethyl-1,2,3,3a,8,8a-hexahydropyrrolo[2,3-b]indol-5-yl phenylcarbamate], the “newly synthesized APP” value [1] was “reduces newly synthesized APP”, the “lowering of APP levels in brain” value [2] was 30% and the “lowering of brain AChE levels” value [3] was 50%. The “NGF levels in brain” value [4] was “elevated”, the “APP levels in the brain” value [5] was “lowered APP levels” and the “APP, Aβ40 and Aβ42 levels in mouse brain” value [6] was “reduction”. The half-life ([7]; CSF, read-out: half-life in human CSF (converted)) was ~12 h, the half-life ([7]; plasma, read-out: half-life in human plasma (converted)) was ~5 h and the “half-life in human plasma” value ([7]; oral, listed as Posiphen) was 5 h. For the same molecule, the “binding to brain proteins” value [8] was ~96%, the “binding to brain proteins” value [9] was ~96% and the Tau levels [10] was “lowers their Tau levels back to the levels found in healthy volunteers”. The pIC50 [11] was > 5.30.

With `CN1CC[C@@]2(C)c3cc(OC(=O)Nc4ccccc4)ccc3N(C)[C@@H]12` [phenserine] the “half life (plasma)” value [12] was “less than one”.
